The results in this text go back to US5834462A, “Tricyclic heterocyclic sulfonamide and sulfonic ester derivatives” (Eisai Co., Ltd., priority 1993, dated 1998).

Converted amounts (≈) assume the structure as drawn.

A word on the IC50: it is the concentration that inhibits the measured activity by half. A higher IC50 goes with weaker potency in that assay.

The experiment has as its system KB cells (human nasopharyngeal cancer cells). In words: in vitro Antitumor test on KB cells (MTT). Type of experiment: cell-based. The note with it: 72 h, 3 days incubation. As to the method: in vitro Antitumor test on KB cells (human nasopharyngeal cancer cells)
KB cells suspended in an RPMI1640 medium (mfd. by Nissui Seiyaku K. K.), which contained 10% of fetal calf serum, 100 U/mi of penicillin, 100 μg/ml of streptomycin, 5×10^-5 M of mercaptoethanol and 1 mM of sodium pyruvate, were inoculated in 1.25×10^3 portions (0.1 ml) into wells of a 96-well flat-bottomed microplate and then incubated in an incubator containing 5% of carbon dioxide at 37° C. for a day.
A compound of the present invention was dissolved in dimethyl sulfoxide in a concentration of 20 mg/ml and diluted with a 10% fetal calf serum-RPMI1640 culture medium to a concentration of 100 μg/ml. By using this concentration as the highest level, threefold serial dilution was performed with a 10% fetal calf serum-RPMI1640 culture medium. Then it was added in 0.1 ml portions into the wells of the above-mentioned plate wherein the KB cells had been incubated followed by incubation in the incubator containing 5% of carbon dioxide at 37° C. for 3 days.
After incubating, an MTT (3-(4,5-dimethylthiazol-2-yl)-2,5-diphenyltetrazolium bromide) solution (3.3 mg/ml) was added in 0.05 ml portions into the wells and the incubation was effected for additional 1 hour. After sucking off the supernatant from each well, the formazane thus formed was dissolved in 0.1 ml of dimethyl sulfoxide. Then the absorbance at 540 nm was measured with a microplate reader and employed as an indication of the vital cell count. In accordance with the following equation, the inhibitory ratio was calculated and the 50% inhibitory concentration (IC50) of the test compound was determined. [formula] T: absorbance of a well containing the test commpound. C: absorbance of a well containing no test compound.
With `COc1ccc(S(=O)(=O)Nc2cccc3c2[nH]c2ccccc23)cc1` [Example 2, N-(9H-Carbazol-1-yl)-4-methoxybenzenesulfornamide], 0.1 µg/mL (≈ 0.284 µM) corresponded to half-maximal inhibition (IC50). For `COc1ccc(S(=O)(=O)Nc2cccc3c(=O)c4ccccc4[nH]c23)cc1` [Example 4, N-(9(10H)-Acridinon-4-yl)-4-methoxyhenzenesulfonamide] the value was 0.17 µg/mL (≈ 0.447 µM). The figure for `COc1ccc(S(=O)(=O)Nc2cccc3c2Nc2ccccc2O3)cc1` [Example 5, 4-Methoxy-N-(10H-phenoxazin-1-yl)benzenesulfonamide] is 0.08 µg/mL (≈ 0.217 µM); for `COc1ccc(S(=O)(=O)Nc2cccc3c2Nc2ccccc2CC3)cc1` [Example 6, N-(10,11-Dihydro-5H-dibenz(b,f)azepin-4-yl)-4-methoxybenzenesulfonamide] it is 0.09 µg/mL (≈ 0.237 µM). Molecule `COc1ccc(S(=O)(=O)Nc2cccc3c2Nc2ccccc2C=C3)cc1` [Example 9, N-(5H-Dibenz[b,f]azepin-4-yl)-4-methoxybenzene-sulfonamilde] displayed an IC50 of 0.23 µg/mL (≈ 0.608 µM). In turn, `COc1ccc(S(=O)(=O)Nc2cccc3c2NC(=O)c2ccccc2O3)cc1` [Example 12, N-(Dibenrz(b,f)(1,4)oxazepin-11(10H)-on-9-yl)-4-methoxybenzenelfonamide] gave an IC50 of 0.25 µg/mL (≈ 0.631 µM). The IC50 values of the last two molecules are within 1.5-fold of each other. `COc1ccc(S(=O)(=O)Nc2cccc3cc4ccccc4nc23)cc1` [Example 14, N-(4-Acridinyl)-4-methoxybenzenesulfonamide] came in with an IC50 of 0.026 µg/mL (≈ 0.0713 µM).

`COc1ccc(S(=O)(=O)Nc2cccc3c2Nc2ncccc2O3)cc1` [Example 15, 4-Methoxy-N-(10H-pyrido(3,2-b)(1,4)benzoxazin-9-yl)-benzenesulfonamide] yielded an IC50 of 0.15 µg/mL (≈ 0.406 µM). For `COc1ccc(S(=O)(=O)Nc2cccc3c2Nc2cccnc2O3)cc1` [Example 16, 4-Methoxy-N-(5H-pyrido(2,3-b)(1,4)benzoxazin-6-yl)-benzenesulfonamide] the value was 0.022 µg/mL (≈ 0.0596 µM). The figure for `COc1ccc(S(=O)(=O)Nc2cccc3c(=O)c4cc(O)ccc4[nH]c23)cc1` [Example 20, N-(7-Hydroxy-9(10H)-acridinon-4-yl)-4-methoxybenzene-sulfonamide] is 0.11 µg/mL (≈ 0.277 µM); for `COc1ccc(S(=O)(=O)Nc2cccc3c2Nc2ccc(O)cc2O3)cc1` [Example 22, N-(7-Hvdroxy-10H-phenoxain-1-yl)-4-methoxybenzene-sulfonamide] it is 0.17 µg/mL (≈ 0.442 µM); for `COc1ccc(S(=O)(=O)Nc2cccc3oc4cc(=O)ccc-4nc23)cc1` [Example 24, 4-Methoxy-N-(3H-phenoxazin-3-on-9-yl)benzene-sulfonamide] it is 0.0061 µg/mL (≈ 0.016 µM). The figure for `COc1ccc(S(=O)(=O)Nc2cccc3sc4cc(=O)ccc-4nc23)cc1` [Example 25, 4-Methoxy-N-(3-phenothiazin-3-on-9-yl)benzene-sulfonamide] is 0.016 µg/mL (≈ 0.0402 µM). In turn, `COc1ccc(S(=O)(=O)Nc2cccc3c2Nc2ccccc2CS3)cc1` [Example 26, N-(5,11-Dihydrobenzo(b,e)(1,4)thiazepin-6-yl)-4-metboxybenzenesulfonamide] had an IC50 of 0.15 µg/mL (≈ 0.376 µM). Compared with the last molecule, the IC50 is about 9.4-fold higher. For `COc1ccc(S(=O)(=O)Nc2cccc3c2N(C)c2ccccc2O3)cc1` [Example 29, 4-Methoxy-N-(10-methyl-10H-phenoxazin-1-yl)benzene-sulfonamide] the value was 0.11 µg/mL (≈ 0.288 µM); for `COc1ccc(S(=O)(=O)Nc2cccc3c2Nc2ccc(C)cc2CN3)cc1` [Example 31, N-10,11-Dihydro-2-methyl-5H-dihenzn(b,e)(1,4)-diazepin-6-yl)-4-methoxyhenenesulfonamide], 0.27 µg/mL (≈ 0.683 µM). For `COc1ccc(S(=O)(=O)Nc2cccc3c2Nc2ccc(CO)cc2O3)cc1` [Example 33, N-(7-Hydroxymethyl-10-phenoxazin-1-yl)-4-methoxy-benzenesulfonamide] the value was 0.043 µg/mL (≈ 0.108 µM); for `Nc1ccc(S(=O)(=O)Nc2cccc3c2Nc2ccccc2S3)cc1` [Example 34, 4-Amino-N-(10-phenothiazin-1-yl)benzenesulfonamide], 0.25 µg/mL (≈ 0.677 µM).
